pIC50: −log10 of the molar value.
Biological target: T1, Tyrosine-protein phosphatase non-receptor type 22 (Homo sapiens, UniProt Q9Y2R2)
T1 sequence (Q9Y2R2 whole entry): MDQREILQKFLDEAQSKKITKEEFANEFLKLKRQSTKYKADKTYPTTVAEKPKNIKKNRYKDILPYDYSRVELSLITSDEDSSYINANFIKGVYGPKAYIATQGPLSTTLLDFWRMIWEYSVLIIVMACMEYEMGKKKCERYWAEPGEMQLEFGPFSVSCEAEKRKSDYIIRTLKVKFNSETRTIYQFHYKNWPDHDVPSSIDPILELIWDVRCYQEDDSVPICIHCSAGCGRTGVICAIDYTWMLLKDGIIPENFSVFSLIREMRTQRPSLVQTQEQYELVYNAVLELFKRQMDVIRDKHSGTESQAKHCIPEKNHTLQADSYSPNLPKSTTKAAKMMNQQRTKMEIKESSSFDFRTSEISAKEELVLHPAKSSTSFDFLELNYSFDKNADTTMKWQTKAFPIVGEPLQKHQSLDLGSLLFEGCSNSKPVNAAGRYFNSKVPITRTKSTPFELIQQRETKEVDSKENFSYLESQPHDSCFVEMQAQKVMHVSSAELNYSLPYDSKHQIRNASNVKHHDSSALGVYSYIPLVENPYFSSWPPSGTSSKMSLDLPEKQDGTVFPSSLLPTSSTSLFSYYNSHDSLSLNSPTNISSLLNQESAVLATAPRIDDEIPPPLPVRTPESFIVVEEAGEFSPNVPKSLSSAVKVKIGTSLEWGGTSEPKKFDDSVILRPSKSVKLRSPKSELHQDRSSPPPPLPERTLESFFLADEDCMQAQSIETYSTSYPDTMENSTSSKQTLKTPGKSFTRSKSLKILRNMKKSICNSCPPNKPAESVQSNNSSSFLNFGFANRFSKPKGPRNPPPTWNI
Test: PubChem AID 2140

A pIC50 of 4.36 was found for `CCOc1ccc2nc(NC(=O)CSc3cc(O)c4c(C)c(C)sc4n3)sc2c1` [2-[(2,3-dimethyl-4-oxidanylidene-5H-thieno[2,3-b]pyridin-6-yl)sulfanyl]-N-(6-ethoxy-1,3-benzothiazol-2-yl)ethanamide] in this work.

— BindingDB's records for doi:10.7270/Q2ZP44JJ (Burnham Center For Chemical Genomics, 2009)
